Source: patent US20250275940A1, “PTEROSTILBENE AND SILIBININ FOR PREVENTING, AMELIORATING OR REDUCING RADIATION-INDUCED DISEASES” (UNIVERSITAT DE VALÈNCIA, priority 2021, published 2025)
Read-outs that look alike come from different tables or passages of the source.

Tests used:
[1] = test system: Swiss albino mice subjected to whole-body γ irradiation; test: Survival of mice subjected to whole-body γ irradiation (LD50/30); format: in vivo; conditions: 6 days after γ radiation (LD50/30), compounds administered orally, FIG. 2A
Description: Swiss albino mice (male, 9-10 weeks old, 30-32 g) were obtained from Charles River Laboratories (Wilmington, MA). This strain is among the most common used in radiation studies (Williams 2010). Mice were fed with a nutritionally complete diet (standard diet, SD) before irradiation. This was A03 from Panlab (Barcelona, Spain), which has 3,200 kcal/kg and the following nutritional composition: crude protein, 23.5%; crude fat, 4.3%; crude fiber, 3.7%; and carbohydrates, 51.1%; vitamins and minerals were provided as in the NIH-7 open formula for rat and mouse. This diet meets the dietary allowances recommended for adult mice by the American Institute of Nutrition. The animals were fed ad libitum and kept in individual metabolic cages, in which body weight and food ingestion were monitored daily. The animal room was maintained at 22° C. on a 12 h light/12 h dark cycle. Ad libitum intake of drinking water was also allowed. Care of irradiated mice followed the recommendation of the Robert Wood Johnson Medical School (Piscataway, NJ) for mouse total body irradiation (policy 15), which includes: a) use of antibiotics in the drinking water (134 mg ampicillin/kg/day, 40 mg baytril/kg/day, and 220/42 mg sulfamethoxazole/trimethoprim/kg/day), b) making drinking water readily available, c) Napa nectar Systems Engineering Lab Group Inc., Napa, CA) provided on the bottom of the cage during the first 14 days and replaced daily, d) provision of softened food served in a small Petri dish on the cage floor, e) completely sterile environment (cage, food, and water) to avoid potential immunosuppression-associated infections. A free-standing wheel inside the cage was also included to facilitate the physical exercise of the animals. All experiments were started at 10.00 h to minimize possible circadian variations. Procedures involving animals were in compliance with international laws and policies (EEC Directive 86/609, OJ L 358. 1, Dec. 12, 1987; and NIH Guide for the Care and Use of Laboratory Animals, NIH Publ. No. 85-23, 1985). Mice were subjected to g-radiation (^137Cs) (total body irradiation, TBI) in a BIOBEAM 8000 (Gamma-Service Medical GmbH, Leipzig, Germany). Single fraction radiotherapy, at total doses ranging from approx. 5.0 to 10.0 Gy, was administered at a rate of approx. […]. The irradiation distance from the source was limited to 12 cm. Radiation dosimetry was controlled using alanine dosimeters from Bruker (Billerica, MA) with dosimetry variation of +/−0.09 Gy. […] NR (nicotinamide riboside, 3-aminocarbonyl-1-b-D-ribofuranosyl-pyridinium, Elysium Health, Inc., New York, NY) was dissolved in vaccination-grade water, and the pH of the solution neutralized (pH 7.0) before oral administration (185 mg/kg×day, Obrador 2020). FSL-1 (InvivoGen, San Diego, CA) was resuspended in sterile vaccination-grade water, and administered IP (0.25 mg/kg×day, the volume administered was of […] depending on the weight of the mouse, as recommended by Kurkjian 2017). Pharmaceutical grade amifostine (Ethyol) was obtained from Cumberland Pharmaceuticals (Nashville, TN) as 500 mg sterile lyophilized powder vial, and reconstituted with physiological saline prior to use.
First, the effects of γ radiation and mice survival were studied. […] Mice received whole-body γ radiation (one single dose; ^137Cs, 0.5-0.6 Gy/min; Biobeam 8000, GSM GmbH). One Gy=absorption of 1 J of energy/kg of matter.
Next, the thirty-days survival of mice treated with γ rays (LD50/30) and pterostilbene (PT) was analysed (FIG. 1B).

[2] = Plasma and extravascular levels of pterostilbene after oral administration; format: in vivo; conditions: mice, 200 mg Pter/kg b.w. oral
Procedure: Plasma and extravascular levels of pterostilbene after its oral administration to mice were studied. Mice were treated with 200 mg Pter/kg b.w. A group of 4-5 animals was sacrificed per each time point. Pter was dissolved in 2-hydroxypropyl-b-cyclodextrin, then suspended in 0.3% carboxymethylcellulose. Nondetectable=n.d. * P<0.1 comparing data obtained at 10-1440 min versus those found at 5 min.

[3] = PT, SIL and NAD+ levels in circulating blood; conditions: treated and irradiated mice, FIG. 10A
Procedure: Briefly, samples were analyzed through HPLC (Ultimate 3000, Thermo Fisher Scientific) and MS/MS (Waters TQ detector triple quadrupole) systems on a Hypurity™ C18 column (50×4.6 mm) using an injection volume of 5 μL. The mobile phases consisted of water (A) and acetonitrile (B). […] MS/MS data acquisition was performed under negative electrospray ionization mode. […] The fragmentary voltage was 150 V, and the collision energy 15 eV. Tissue sample preparation was as described for determination of PTER levels (above).
Whole-blood samples (0.5 ml) were collected in sodium citrate tubes at 4° C. Then a whole-blood aliquot of 0.1 ml was transferred to a cryovial containing 0.9 ml of 0.5 M ice-cold perchloric acid to lyse all blood cells. Samples were centrifuged at 10,000 g×10 min (4° C.). Supernatants were stored at −80° C. until analyzed.

[4] = test system: Swiss albino mice subjected to whole-body γ irradiation; test: Survival of mice subjected to whole-body γ irradiation (LD50/30); format: in vivo; conditions: dose of 100 mg/kg, orally once per day, 5 days before and 2 days after γ irradiation (7.2 Gy), FIG. 1B
[5] = background statement; cited from earlier work
[6] = Swiss albino, mouse, brain, 200 mg/kg b.w., read-out: Pter in Brain
[7] = Swiss albino, mouse, kidney, 200 mg/kg b.w., read-out: Pter in Kidney
[8] = Swiss albino, mouse, liver, 200 mg/kg b.w., read-out: Pter in Liver
[9] = Swiss albino, mouse, lung, 200 mg/kg b.w., read-out: Pter in Lung
[10] = Swiss albino, mouse, plasma, 200 mg/kg b.w., read-out: Pter in Plasma

SMILES: COc1cc(/C=C/c2ccc(O)cc2)cc(OC)c1 [PT, 3,5-dimethoxy-4′-hydroxystilbene]
- survival [1]: around 100%
- concentration at 5 min [2, 6]: 2000 ± 1000 nM
- concentration at 10 min [2, 6]: 6 ± 2 µM
- concentration at 30 min [2, 6]: 10 ± 3 µM
- concentration at 60 min [2, 6]: 24 ± 7 µM
- concentration at 120 min [2, 6]: 14 ± 4 µM
- concentration at 240 min [2, 6]: 8 ± 3 µM
- concentration at 480 min [2, 6]: 3000 ± 1000 nM
- concentration at 5 min [2, 7]: 1000 ± 500 nM
- concentration at 10 min [2, 7]: 4 ± 2 µM
- concentration at 30 min [2, 7]: 6 ± 3 µM
- concentration at 60 min [2, 7]: 10 ± 4 µM
- concentration at 120 min [2, 7]: 8 ± 2 µM
- concentration at 240 min [2, 7]: 2 ± 0.5 µM
- concentration at 5 min [2, 8]: 3000 ± 1000 nM
- concentration at 10 min [2, 8]: 8 ± 3 µM
- concentration at 30 min [2, 8]: 11 ± 3 µM
- concentration at 60 min [2, 8]: 17 ± 5 µM
- concentration at 120 min [2, 8]: 12 ± 4 µM
- concentration at 240 min [2, 8]: 7 ± 2 µM
- concentration at 480 min [2, 8]: 1000 ± 500 nM
- concentration at 5 min [2, 9]: 7000 ± 2000 nM
- concentration at 10 min [2, 9]: 15 ± 6 µM
- concentration at 30 min [2, 9]: 23 ± 5 µM
- concentration at 60 min [2, 9]: 35 ± 8 µM
- concentration at 120 min [2, 9]: 21 ± 4 µM
- concentration at 240 min [2, 9]: 12 ± 3 µM
- concentration at 480 min [2, 9]: 2000 ± 1000 nM
- concentration at 5 min [2, 10]: 5000 ± 2000 nM
- concentration at 10 min [2, 10]: 18 ± 4 µM
- concentration at 30 min [2, 10]: 55 ± 9 µM
- concentration at 60 min [2, 10]: 98 ± 17 µM
- concentration at 120 min [2, 10]: 46 ± 12 µM
- concentration at 240 min [2, 10]: 21 ± 6 µM
- concentration at 480 min [2, 10]: 14000 ± 5000 nM
- concentration at 720 min ([2]; Swiss albino, mouse, plasma, 200 mg/kg b.w., 720 min): 1000 ± 500 nM
- time after administration at which Pterostilbene levels peak ([2]; all tissues studied): 60 min
- PT levels in circulating blood, 30 min vs 120 min [3]: higher 30 min after
- effect on improving survival (60 days) among doses [4]: best effect on improving survival
- potency as antifungal agent relative to Resveratrol [5]: 60-100 times
